Consider 8 molecules from patent publication US20230234920A1, “Azirine Containing Compounds as Anti-Angiogenesis Agents and a Process for the Preparation Thereof” (COUNCIL OF SCIENTIFIC & INDUSTRIAL RESEARCH, priority 2020, published 2023).

Data set [1] is described as follows: Intramuscular pharmacokinetic study of chiral isomers 1 and 2. In kind it is in vivo, male Sprague Dawley (SD) rats. The following applies: male, Sprague-Dawley, rat, plasma, intramuscular, IM 20 mg/kg. On the procedure: In vivo pharmacokinetic study was performed in male Sprague Dawley (SD) rats (n=4). Intramuscular (IM) formulation of compound 1 Chiral 1 and 2 were prepared by individually dissolving accurately weighed quantity of compound 1, chiral isomers 1 and 2 (20 mg) in 1 mL of olive oil followed by vortexing for 2 min and sterilize through syringe filter. Blood samples were collected from the retro orbital plexus of rats under light ether anesthesia into microfuge tubes containing heparin as an anti-coagulant at 0.25, 0.5, 1, 3, 5, 7, 9, 24, 30, 48 and 72 hours post-dosing after intramuscular dose. Plasma sample was harvested by centrifuging the blood at 13000 rpm for 10 min on Sigma 1-15 K (Frankfurt, Germany) and stored frozen at −70±10° C. until bioanalysis. Each plasma sample (100 μl) was processed using protein precipitation method using 200 μl acetonitrile containing medicarpine as internal standard (I.S.) as protein precipitant, and 10 μl of the supernatant was injected for LC-MS/MS.

A further data set relates to HUVECs. As to the kind of experiment: Capillary-like tube formation assay (tubulogenesis). The note with it: for tubule formation: 6 h; for IC50: Homo sapiens, HUVEC, read-out: IC50 value; for remarks: remark on IC50 versus sunitinib. In kind it is cell-based, human. As to the method: FIG. 2 represents effect of Compound 1 on capillary tube formation of HUVECs. Endothelial cells in Matrigel were incubated with ECM basal medium in the presence of compound 1 at the indicated concentrations for 6 h. Cell viability was assessed by Calcein-AM dye added few min. before the completion of 6 h. then photographs at 10×magnification were taken using an inverted microscope. The tubule length of HUVECs was quantified by Leica QWin software. Tubule network formation is expressed as a percentage of that vehicle (0.1% DMSO) treated cells (control).
FIG. 9 represents effect of racemic mixture (chiral isomer 1-1 and chiral isomer 2-1) of Compound 1 on capillary tube formation of HUVECs. Endothelial cells seeded in matrigel were incubated at the indicated concentrations of compound 1 racemic mixtures (1-1 and 2-1) with ECM basal medium for 6 h. Calcein-AM treatment was added to the ECs few minutes before completion of 6 h and pictures were captured using an inverted microscope at 10×magnification. The tubular structures of HUVECs were measured using Leica QWin software and tubulogenesis was expressed as a % of that vehicle (0.1% DMSO) treated cells (control) well.
HUVEC cells were incubated with or without sunitinib (20 nM) for 6 h at indicated concentrations of chiral isomers of Compound 1 (1-1 and 2-1). Photographs were taken using an inverted microscope at 10×magnification after Calcein-AM treatment to the ECs few minutes before completion of 6 h. The tubule length of HUVECs was quantified by Leica QWin software represented as a % of that vehicle (0.1% DMSO) treated cells (control) well.
To examine the effect of Compound 1 on angiogenesis, capillary tube formation assay was performed on regular or reduced growth factor Matrigel, taking VEGF (50 ng/mL) treated cells as a positive control and sunitinib (50 nM) as a negative control (FIG. 2). HUVECs seeded onto the matrigel with compound 1 at different concentrations of (10 μM, 5 μM, 1 μM, 800 nM, 500 nM, 250 nM, 125 nM, 75 nM, 50 nM, 25 nM and 10 nM) were incubated for six hours.
HUVECs (Human Umbilical Vein Endothelial Cells) were seeded onto the pre-coated matrigel (CORNING; 354230) in 96 wells plate at the rate of 11000 cells/well in incomplete ECM basal medium. Control group received vehicle, VEGF at 50 ng/mL as a positive and sunitinib at 50 nM as a negative control were used. Compound 1 at different dose concentrations (10 μM, 5 μM, 1 μM, 800 nM, 500 nM, 250 nM, 100 nM, 75 nM, 50 nM and 25 nM) were employed on seeded HUVECs in incomplete medium. Post 6 h of incubation Calcein-AM (Invitrogen) was added to all the respective groups and then the tubule pattern was observed and photographs were taken using an inverted fluorescent microscope (DM 6000, Leica Microsystems, USA). Relative tubule lengths were measured using Leica Q-Win software version 3.5.1. (Leica Microsystems, Switzerland).

Where [2] appears, read: endothelial tubule network assay, anti-angiogenic activity.

Read-outs that look alike come from different tables or passages of the source.

The molecule `CCOC(=O)[C@H]1N=C1CCc1ccc(OC)cc1` [Chiral isomer (1-1)] yielded a concentration at 0.25 h in data set [1] (0.25 h) of 1520 ± 360 ng/mL. The molecule further came in with a concentration at 0.5 h in data set [1] (0.5 h) of 2150 ± 830 ng/mL. This molecule showed a concentration at 1 h in data set [1] (1 h) of 3020 ± 1330 ng/mL. The molecule further displayed a concentration at 3 h in data set [1] (3 h) of 3170 ± 940 ng/mL. The molecule further displayed a concentration at 5 h in data set [1] (5 h) of 3570 ± 100 ng/mL. For the same molecule, the concentration at 7 h in data set [1] (7 h) turned out to be 3580 ± 750 ng/mL. In data set [1] (9 h), the concentration at 9 h was determined as 4810 ± 1560 ng/mL. Besides, the concentration at 24 h in data set [1] (24 h) is 1930 ± 380 ng/mL. The concentration at 30 h in data set [1] (30 h) turned out to be 1550 ± 360 ng/mL. Moreover, in data set [1] (48 h), the concentration at 48 h is 545 ± 90 ng/mL. Further, in data set [1] (72 h), the concentration at 72 h was determined as 110 ± 40 ng/mL. Moreover, the tubule formation result in the data set with HUVECs (100 nM combined with sunitinib at 20 nM) is reported as “approximately 15%”; with HUVECs (250 nM) it was 100%; in the data set with HUVECs (500 nM), 50%; in the data set with HUVECs (1 μM), 50%.

For orientation: IC50 means the point on the concentration scale where inhibition reaches its midpoint. Consider `CCOC(=O)C1N=C1CCCc1ccc2oc3ccccc3c2c1` (stereo not drawn) [Compound 44, Ethyl 3-(3-(dibenzo[b,d]furan-2-yl)propyl)-2H-azirine-2-carboxylate], for which, in the data set with HUVECs (setting [2]), the IC50 came out at 250 nM.

With `CCOC(=O)C1N=C1CCCc1ccc2c(c1)CCCO2` (stereo not drawn) [Compound 45, Ethyl 3-(3-(chroman-6-yl)propyl)-2H-azirine-2-carboxylate], the IC50 in the data set on HUVECs (setting [2]) stood at 100 nM. Besides, the remarks result in the data set on HUVECs was “comparable to sunitinib”.

As for `CCOC(=O)C1N=C1CCc1ccc(N(C)C)cc1` (stereo not drawn) [Compound 47, Ethyl 3-(4-(dimethylamino)phenethyl)-2H-azirine-2-carboxylate], the IC50 in the data set on HUVECs (setting [2]) turned out to be 500 nM.

For the molecule `COc1ccc(CCC2=NC2C#N)cc1` (stereo not drawn) [Compound 48, 3-(4-Methoxyphenethyl)-2H-azirine-2-carbonitrile], the IC50 in the data set on HUVECs came to 250 nM.

In the case of `CCOP(=O)(OCC)C1N=C1CCc1ccc(OC)cc1` (stereo not drawn) [Compound 49, Diethyl (3-(4-methoxyphenethyl)-2H-azirin-2-yl)phosphonate], the 50% inhibitory concentration (IC50) in the data set on HUVECs came to 250 nM.

In the case of `CCOC(=O)C1N=C1CCc1ccc(OC2CCOC2)cc1` (stereo not drawn) [Compound 50, Ethyl 3-(4-((tetrahydrofuran-3-yl)oxy)phenethyl)-2H-azirine-2-carboxylate], the half-maximal inhibitory concentration (IC50) in the data set with HUVECs (setting [2]) came out at 250 nM.

For the molecule `COc1ccc(CCC2=NC2c2nnn[nH]2)cc1` (stereo not drawn) [Compound 51, 5-(3-(4-Methoxyphenethyl)-2H-azirin-2-yl)-1H-tetrazole], in the data set on HUVECs (setting [2]), the IC50 worked out at 100 nM. Further, in the data set with HUVECs, the remarks result is recorded as “comparable to sunitinib”.
